Reference: ChEMBL document CHEMBL2021783, “Inhibition of cholinesterase activity and amyloid aggregation by berberine-phenyl-benzoheterocyclic and tacrine-phenyl-benzoheterocyclic hybrids” (Bioorg Med Chem, 2012)
pIC50: −log10 of the molar value. Activity calls are given as the source filed them. The calls are words filed in the database; no cut-off is given here.

What was measured:
Acetylcholinesterase = Acetylcholinesterase (Electrophorus electricus, UniProt O42275)
Description: Inhibition of electric eel AChE using acetylcholine as substrate by Ellman's method

Cholinesterase = Cholinesterase (Equus caballus, UniProt P81908)
Description: Inhibition of equine serum BuChE using butyrylcholine as substrate by Ellman's method

[1] = Inhibition of amyloid beta (1 to 42) self aggregation at 20 uM after 48 hrs by thioflavin T fluorescence assay
[2] = target: Acetylcholinesterase (Electrophorus electricus) (UniProt O42275); assay: Mixed-type inhibition of electric eel AChE using acetylcholine as substrate after 15 mins by Lineweaver-Burk plot analysis
[3] = target: Acetylcholinesterase (Electrophorus electricus) (UniProt O42275); assay: Ratio of IC50 for tarcine to compound for electric eel AChE using acetylcholine as substrate by Ellman's method

Acetylcholinesterase, sequence (O42275 whole entry): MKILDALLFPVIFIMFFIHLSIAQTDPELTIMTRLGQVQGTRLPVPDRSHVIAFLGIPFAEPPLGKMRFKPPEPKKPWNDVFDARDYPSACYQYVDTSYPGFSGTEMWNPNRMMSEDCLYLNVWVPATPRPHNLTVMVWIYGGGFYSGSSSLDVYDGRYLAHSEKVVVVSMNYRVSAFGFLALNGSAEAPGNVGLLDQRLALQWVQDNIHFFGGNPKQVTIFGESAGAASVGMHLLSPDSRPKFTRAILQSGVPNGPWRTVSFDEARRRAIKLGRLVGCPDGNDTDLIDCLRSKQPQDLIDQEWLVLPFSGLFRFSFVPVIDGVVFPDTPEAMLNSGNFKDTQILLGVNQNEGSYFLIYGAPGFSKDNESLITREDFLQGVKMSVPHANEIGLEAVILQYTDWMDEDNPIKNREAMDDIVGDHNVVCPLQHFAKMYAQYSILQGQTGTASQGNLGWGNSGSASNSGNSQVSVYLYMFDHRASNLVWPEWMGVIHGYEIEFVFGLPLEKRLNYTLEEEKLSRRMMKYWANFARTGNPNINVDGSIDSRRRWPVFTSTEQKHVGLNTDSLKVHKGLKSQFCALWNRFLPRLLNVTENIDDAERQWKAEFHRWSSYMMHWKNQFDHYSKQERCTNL
Cholinesterase, sequence (P81908 whole entry): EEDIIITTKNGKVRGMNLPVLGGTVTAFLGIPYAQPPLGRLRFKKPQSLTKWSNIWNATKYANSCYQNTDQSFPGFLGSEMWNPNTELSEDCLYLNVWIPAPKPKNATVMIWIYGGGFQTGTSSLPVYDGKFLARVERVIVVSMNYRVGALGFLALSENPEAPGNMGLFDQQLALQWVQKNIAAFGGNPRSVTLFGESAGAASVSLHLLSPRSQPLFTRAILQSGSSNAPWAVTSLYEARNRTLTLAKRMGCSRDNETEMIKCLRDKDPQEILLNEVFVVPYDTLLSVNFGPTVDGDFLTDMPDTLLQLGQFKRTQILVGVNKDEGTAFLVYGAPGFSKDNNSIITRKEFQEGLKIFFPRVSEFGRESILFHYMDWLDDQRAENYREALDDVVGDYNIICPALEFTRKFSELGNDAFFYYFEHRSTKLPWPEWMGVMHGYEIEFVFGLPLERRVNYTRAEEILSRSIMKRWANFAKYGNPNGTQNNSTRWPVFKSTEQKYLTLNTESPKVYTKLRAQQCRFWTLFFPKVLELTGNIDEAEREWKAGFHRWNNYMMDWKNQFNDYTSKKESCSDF
Acetylcholinesterase (Electrophorus electricus), sequence (O42275 24-633 limits assumed): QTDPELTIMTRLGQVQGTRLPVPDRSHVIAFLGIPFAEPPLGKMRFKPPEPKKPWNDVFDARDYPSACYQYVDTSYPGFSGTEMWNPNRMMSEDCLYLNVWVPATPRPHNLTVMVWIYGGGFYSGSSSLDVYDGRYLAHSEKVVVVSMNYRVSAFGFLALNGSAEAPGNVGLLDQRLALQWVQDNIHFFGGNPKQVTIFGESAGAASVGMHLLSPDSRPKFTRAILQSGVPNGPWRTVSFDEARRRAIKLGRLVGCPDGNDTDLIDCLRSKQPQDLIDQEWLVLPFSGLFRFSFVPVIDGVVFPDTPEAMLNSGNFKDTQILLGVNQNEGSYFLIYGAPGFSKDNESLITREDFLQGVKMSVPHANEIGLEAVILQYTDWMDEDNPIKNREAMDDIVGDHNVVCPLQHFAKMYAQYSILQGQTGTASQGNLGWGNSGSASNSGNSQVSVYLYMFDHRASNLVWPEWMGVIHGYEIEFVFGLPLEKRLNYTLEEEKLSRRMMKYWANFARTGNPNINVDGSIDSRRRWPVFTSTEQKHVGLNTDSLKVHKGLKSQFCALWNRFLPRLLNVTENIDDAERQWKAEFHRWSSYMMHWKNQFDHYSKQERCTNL

Compound	pIC50 (Acetylcholinesterase)	pIC50 (Cholinesterase)	inhibition [1] [%]	inhibition [2]	Ratio IC50 [3]
c1ccc2sc(-c3ccc(OCCCCCNc4c5c(nc6ccccc46)CCCC5)cc3)nc2c1	7.40	6.77	40.7	–	–
COc1ccc2cc3[n+](cc2c1OCCCOc1ccc(-c2cc4ccccc4[nH]2)cc1)CCc1cc2c(cc1-3)OCO2	6.11	6.15	–	–	–
c1ccc2sc(-c3ccc(OCCCCNc4c5c(nc6ccccc46)CCCC5)cc3)nc2c1	6.98	6.73	37.8	–	–
c1ccc2oc(-c3ccc(OCCCCNc4c5c(nc6ccccc46)CCCC5)cc3)nc2c1	6.02	6.68	33.2	–	–
COc1ccc2cc3[n+](cc2c1OCCOc1ccc(-c2cc4ccccc4o2)cc1)CCc1cc2c(cc1-3)OCO2	5.44	–	–	–	–
COc1ccc2cc3[n+](cc2c1OCCCOc1ccc(-c2nc4ccccc4s2)cc1)CCc1cc2c(cc1-3)OCO2	5.83	6.23	79.2	–	–
c1ccc2sc(-c3ccc(OCCCCCCNc4c5c(nc6ccccc46)CCCC5)cc3)nc2c1	7.03	7.09	41.9	–	–
c1ccc2oc(-c3ccc(OCCCNc4c5c(nc6ccccc46)CCCC5)cc3)cc2c1	7.24	6.81	62.8	–	–
COc1ccc2cc3[n+](cc2c1OCCCNC(=O)c1cc2ccccc2[nH]1)CCc1cc2c(cc1-3)OCO2	6.01	5.66	73.5	–	–
c1ccc2oc(-c3ccc(OCCCNc4c5c(nc6ccccc46)CCCC5)cc3)nc2c1	6.32	6.45	57.6	–	–
COc1ccc2cc3[n+](cc2c1OCCCNC(=O)c1cc2ccccc2o1)CCc1cc2c(cc1-3)OCO2	5.71	5.81	69.1	–	–
COc1ccc2cc3[n+](cc2c1OCCCOc1ccc(-c2nc4ccccc4o2)cc1)CCc1cc2c(cc1-3)OCO2	5.67	6.19	–	–	–
c1ccc2sc(-c3ccc(OCCCNc4c5c(nc6ccccc46)CCCC5)cc3)nc2c1	7.77	6.91	51.8	Active	18
c1ccc2oc(-c3ccc(OCCCCNc4c5c(nc6ccccc46)CCCC5)cc3)cc2c1	6.70	6.62	46.3	–	–
COc1ccc2cc3[n+](cc2c1OCCOc1ccc(-c2nc4ccccc4o2)cc1)CCc1cc2c(cc1-3)OCO2	5.48	–	–	–	–
COc1ccc2cc3[n+](cc2c1OCCOc1ccc(-c2nc4ccccc4s2)cc1)CCc1cc2c(cc1-3)OCO2	5.79	6.76	–	–	–
COc1ccc2cc3[n+](cc2c1OCCCOc1ccc(-c2cc4ccccc4o2)cc1)CCc1cc2c(cc1-3)OCO2	5.72	6.00	84.6	–	–
COc1ccc2cc3[n+](cc2c1OCCOc1ccc(-c2cc4ccccc4[nH]2)cc1)CCc1cc2c(cc1-3)OCO2	5.97	–	–	–	–
COc1ccc2cc3[n+](cc2c1OC)CCc1cc2c(cc1-3)OCO2	–	–	36.3	–	–
